In US20260285855A1, “HETEROARYL DERIVATIVES AS DDRS INHIBITORS” (CHIESI FARMACEUTICI S.P.A., priority 2023, published 2026):

Tests used:
DDR2 = target: T1, DDR2 (Homo sapiens, UniProt Q16832); assay: LanthaScreen Europium Kinase Binding assay, DDR2; settings: 5 nM DDR2, 10 nM Kinase Tracer 178, 1 h at rt; Ki from IC50 by Cheng-Prusoff; read-out: Ki DDR2
T1 construct: purchased Life Technologies
T1 sequence (Q16832 22-855): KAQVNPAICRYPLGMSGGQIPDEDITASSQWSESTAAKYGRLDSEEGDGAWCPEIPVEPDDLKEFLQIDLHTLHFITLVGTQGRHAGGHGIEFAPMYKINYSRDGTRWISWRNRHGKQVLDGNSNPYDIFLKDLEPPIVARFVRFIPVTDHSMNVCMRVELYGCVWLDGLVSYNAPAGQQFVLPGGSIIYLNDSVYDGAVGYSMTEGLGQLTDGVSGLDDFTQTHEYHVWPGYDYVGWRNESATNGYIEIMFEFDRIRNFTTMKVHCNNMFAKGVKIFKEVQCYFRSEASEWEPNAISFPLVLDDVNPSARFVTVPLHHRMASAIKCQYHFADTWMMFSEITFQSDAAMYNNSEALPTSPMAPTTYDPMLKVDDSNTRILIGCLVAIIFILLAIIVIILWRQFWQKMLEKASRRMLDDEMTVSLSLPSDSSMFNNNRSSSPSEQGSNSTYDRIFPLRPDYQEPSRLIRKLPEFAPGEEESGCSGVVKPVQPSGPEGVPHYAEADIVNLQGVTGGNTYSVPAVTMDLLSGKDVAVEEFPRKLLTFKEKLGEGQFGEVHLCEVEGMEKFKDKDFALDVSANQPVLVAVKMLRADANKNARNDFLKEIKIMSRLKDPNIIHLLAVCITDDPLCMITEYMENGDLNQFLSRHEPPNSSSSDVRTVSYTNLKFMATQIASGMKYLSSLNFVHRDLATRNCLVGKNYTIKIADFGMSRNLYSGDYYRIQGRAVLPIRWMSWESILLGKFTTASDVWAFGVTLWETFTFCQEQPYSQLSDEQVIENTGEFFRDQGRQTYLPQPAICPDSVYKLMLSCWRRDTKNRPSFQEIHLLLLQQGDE
Description: (§1) DDR1 and DDR2 binding assays were performed using Life Technologies LanthaScreen™ Europium Kinase Binding assay. […] IC50 values were determined in GraphPad Prism 7.0 software, using 4 parameter model: log (inhibitor) vs. response. IC50 values were converted in Ki using the Cheng-Prusoff equation (Ki-IC50/(1+ [Tracer]/Kd).

DDR1 = target: T2, DDR1 (Homo sapiens, UniProt Q08345); assay: LanthaScreen Europium Kinase Binding assay, DDR1; settings: 5 nM DDR1, 20 nM Kinase Tracer 178, 1 h at rt; Ki from IC50 by Cheng-Prusoff; read-out: Ki DDR1
T2 construct: purchased Carna Biosciences
Description: as §1

T2 sequence (Q08345 19-913): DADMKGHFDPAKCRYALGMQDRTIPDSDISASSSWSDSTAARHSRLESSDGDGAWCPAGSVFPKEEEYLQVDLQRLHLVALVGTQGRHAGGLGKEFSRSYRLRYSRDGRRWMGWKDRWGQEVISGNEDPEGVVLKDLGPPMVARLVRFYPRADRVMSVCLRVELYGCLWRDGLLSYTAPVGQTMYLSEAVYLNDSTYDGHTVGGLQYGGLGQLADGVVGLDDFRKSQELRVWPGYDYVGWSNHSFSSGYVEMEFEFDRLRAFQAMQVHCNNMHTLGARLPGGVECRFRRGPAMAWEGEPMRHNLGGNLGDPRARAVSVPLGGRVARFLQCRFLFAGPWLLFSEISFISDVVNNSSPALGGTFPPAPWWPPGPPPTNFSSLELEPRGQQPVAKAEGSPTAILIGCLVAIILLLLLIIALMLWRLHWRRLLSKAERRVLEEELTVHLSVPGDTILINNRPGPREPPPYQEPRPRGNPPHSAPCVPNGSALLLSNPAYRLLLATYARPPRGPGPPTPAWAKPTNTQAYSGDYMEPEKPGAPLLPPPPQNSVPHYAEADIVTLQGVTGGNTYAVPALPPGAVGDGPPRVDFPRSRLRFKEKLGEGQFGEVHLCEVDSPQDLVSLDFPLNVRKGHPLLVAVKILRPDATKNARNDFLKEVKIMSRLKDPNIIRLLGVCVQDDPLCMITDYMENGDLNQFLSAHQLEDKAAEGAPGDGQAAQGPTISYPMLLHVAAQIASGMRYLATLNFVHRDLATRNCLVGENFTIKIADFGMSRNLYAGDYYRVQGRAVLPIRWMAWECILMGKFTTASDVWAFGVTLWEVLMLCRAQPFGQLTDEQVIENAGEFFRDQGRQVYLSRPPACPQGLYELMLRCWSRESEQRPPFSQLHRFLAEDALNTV

CCc1ncc(C(F)(F)F)cc1NC(=O)NC1CC2(C1)CN(C(=O)c1cnn3ccn(C)c13)C2 [Example 309, 1-(2-ethyl-5-(trifluoromethyl)pyridin-3-yl)-3-(2-(1-methyl-1H-imidazo[1,2-b]pyrazole-7-carbonyl)-2-azaspiro[3.3]heptan-6-yl)urea]
Ki (DDR2): 5 to 25 nM | Ki (DDR1): < 5 nM

O=C(CC1CC2(C1)CN(C(=O)c1cnc3ccccn13)C2)Nc1cccc(C(F)(F)F)c1 [Example 28, 2-(2-(imidazo[1,2-a]pyridine-3-carbonyl)-2-azaspiro[3.3]heptan-6-yl)-N-(3-(trifluoromethyl)phenyl)acetamide]
Ki (DDR2): 5 to 25 nM | Ki (DDR1): < 5 nM

Cn1ccn2ncc(C(=O)N3CC4(CC(NC(=O)Nc5cccc(SC(F)(F)F)c5)C4)C3)c12 [Example 125, 1-(2-(1-methyl-1H-imidazo[1,2-b]pyrazole-7-carbonyl)-2-azaspiro[3.3]heptan-6-yl)-3-(3-((trifluoromethyl)thio)phenyl) urea]
Ki (DDR2): < 5 nM | Ki (DDR1): < 5 nM

Cn1cncc1C(=O)N1CC2(CC(NC(=O)Nc3cccc(C(F)(F)F)c3)C2)C1 [Example 8, 1-(2-(1-methyl-1H-imidazole-5-carbonyl)-2-azaspiro[3.3]heptan-6-yl)-3-(3-(trifluoromethyl)phenyl)urea]
Ki (DDR2): 5 to 25 nM | Ki (DDR1): < 5 nM

Cc1ccc(OC(F)(F)F)cc1NC(=O)NC1CC2(C1)CN(c1cnc3[nH]ncc3c1)C2 [Example 307, 1-(2-(1H-pyrazolo[3,4-b]pyridin-5-yl)-2-azaspiro[3.3]heptan-6-yl)-3-(2-methyl-5-(trifluoromethoxy)phenyl)urea]
Ki (DDR2): 25 to 100 nM | Ki (DDR1): 5 to 25 nM

CN(C(=O)Nc1cc(OC(F)(F)F)ccn1)C1CC2(C1)CN(C(=O)c1ncnc3[nH]ccc13)C2 [Example 205, 1-(2-(7H-pyrrolo[2,3-d]pyrimidine-4-carbonyl)-2-azaspiro[3.3]heptan-6-yl)-1-methyl-3-(4-(trifluoromethoxy)pyridin-2-yl)urea]
Ki (DDR2): 5 to 25 nM | Ki (DDR1): < 5 nM

O=C(Nc1cccc(C(F)(F)F)c1)NC1CC2(C1)CN(C(=O)c1cnn3ccsc13)C2 [Example 4, 1-(2-(pyrazolo[5,1-b]thiazole-7-carbonyl)-2-azaspiro[3.3]heptan-6-yl)-3-(3-(trifluoromethyl)phenyl)urea]
Ki (DDR2): < 5 nM | Ki (DDR1): < 5 nM

[2H]C([2H])([2H])n1ccn2ncc(C(=O)N3CC4(CC(CC(=O)Nc5cc(OC(F)(F)F)ccn5)C4)C3)c12 [Example 301, 2-(2-(1-(methyl-d3)-1H-imidazo[1,2-b]pyrazole-7-carbonyl)-2-azaspiro[3.3]heptan-6-yl)-N-(4-(trifluoromethoxy)pyridin-2-yl)acetamide]
Ki (DDR2): < 5 nM | Ki (DDR1): < 5 nM

Cn1ccn2ncc(C(=O)N3CC4(CC(NC(=O)Nc5ccc(F)c(OC(F)(F)F)c5)C4)C3)c12 [Example 118, 1-(4-fluoro-3-(trifluoromethoxy)phenyl)-3-(2-(1-methyl-1H-imidazo[1,2-b]pyrazole-7-carbonyl)-2-azaspiro[3.3]heptan-6-yl)urea]
Ki (DDR2): < 5 nM | Ki (DDR1): < 5 nM

O=C(Nc1cccc(SC(F)(F)F)c1)NC1CC2(C1)CN(C(=O)c1ccnc3[nH]ncc13)C2 [Example 162, 1-(2-(1H-pyrazolo[3,4-b]pyridine-4-carbonyl)-2-azaspiro[3.3]heptan-6-yl)-3-(3-((trifluoromethyl)thio)phenyl)urea]
Ki (DDR2): < 5 nM | Ki (DDR1): < 5 nM

CN(C(=O)Nc1cc(C(F)(F)F)ncn1)C1CC2(C1)CN(C(=O)c1cnn3ccn(C)c13)C2 [Example 170, 1-methyl-1-(2-(1-methyl-1H-imidazo[1,2-b]pyrazole-7-carbonyl)-2-azaspiro[3.3]heptan-6-yl)-3-(6-(trifluoromethyl)pyrimidin-4-yl)urea]
Ki (DDR2): > 100 nM | Ki (DDR1): 5 to 25 nM

CN(C(=O)Nc1cc(C(F)(F)F)ccn1)C1CC2(C1)CN(C(=O)c1cnn3ccccc13)C2 [Example 238, 1-methyl-1-(2-(pyrazolo[1,5-a]pyridine-3-carbonyl)-2-azaspiro[3.3]heptan-6-yl)-3-(4-(trifluoromethyl)pyridin-2-yl)urea]
Ki (DDR2): 5 to 25 nM | Ki (DDR1): < 5 nM

O=C(Nc1ccc(C(F)(F)F)cn1)NC1CC2(C1)CN(c1cnc3[nH]ncc3c1)C2 [Example 163, 1-(2-(1H-pyrazolo[3,4-b]pyridin-5-yl)-2-azaspiro[3.3]heptan-6-yl)-3-(5-(trifluoromethyl)pyridin-2-yl)urea]
Ki (DDR2): 5 to 25 nM | Ki (DDR1): 5 to 25 nM

Cn1ccn2ncc(C(=O)N3CC4(CC(N(C(=O)Nc5cccc(C(F)(F)F)c5)C5CC5)C4)C3)c12 [Example 187, 1-cyclopropyl-1-(2-(1-methyl-1H-imidazo[1,2-b]pyrazole-7-carbonyl)-2-azaspiro[3.3]heptan-6-yl)-3-(3-(trifluoromethyl)phenyl)urea]
Ki (DDR2): 5 to 25 nM | Ki (DDR1): < 5 nM

CN(C(=O)Nc1cc(C(F)(F)F)ccn1)C1CC2(C1)CN(C(=O)c1cnn3ccn(CCO)c13)C2 [Example 209, 1-(2-(1-(2-hydroxyethyl)-1H-imidazo[1,2-b]pyrazole-7-carbonyl)-2-azaspiro[3.3]heptan-6-yl)-1-methyl-3-(4-(trifluoromethyl)pyridin-2-yl)urea]
Ki (DDR2): 5 to 25 nM | Ki (DDR1): < 5 nM

CN(C(=O)Nc1cc(OC(F)(F)F)ccc1F)C1CC2(C1)CN(C(=O)c1cnn3ccn(C)c13)C2 [Example 132, 3-(2-fluoro-5-(trifluoromethoxy)phenyl)-1-methyl-1-(2-(1-methyl-1H-imidazo[1,2-b]pyrazole-7-carbonyl)-2-azaspiro[3.3]heptan-6-yl)urea]
Ki (DDR2): 5 to 25 nM | Ki (DDR1): < 5 nM

CN(C(=O)Nc1cc(C(F)(F)F)cnn1)C1CC2(C1)CN(C(=O)c1cnn3ccn(C)c13)C2 [Example 208, 1-methyl-1-(2-(1-methyl-1H-imidazo[1,2-b]pyrazole-7-carbonyl)-2-azaspiro[3.3]heptan-6-yl)-3-(5-(trifluoromethyl)pyridazin-3-yl)urea]
Ki (DDR2): 25 to 100 nM | Ki (DDR1): 5 to 25 nM

COc1c(CO)cc(OC(F)(F)F)cc1NC(=O)N(C)C1CC2(C1)CN(c1cnc3[nH]ncc3c1)C2 [Example 218, 1-(2-(1H-pyrazolo[3,4-b]pyridin-5-yl)-2-azaspiro[3.3]heptan-6-yl)-3-(3-(hydroxymethyl)-2-methoxy-5-(trifluoromethoxy)phenyl)-1-methylurea]
Ki (DDR2): 5 to 25 nM | Ki (DDR1): < 5 nM

Cn1ccn2ncc(C(=O)N3CC4(CC(NC(=O)Nc5cc(C6CC6)ccn5)C4)C3)c12 [Example 155, 1-(4-cyclopropylpyridin-2-yl)-3-(2-(1-methyl-1H-imidazo[1,2-b]pyrazole-7-carbonyl)-2-azaspiro[3.3]heptan-6-yl)urea]
Ki (DDR2): 5 to 25 nM | Ki (DDR1): < 5 nM

CN(C(=O)Nc1cc(C(F)(F)F)ccn1)C1CC2(C1)CN(C(=O)c1cnn3ccn(C)c13)C2 [Example 129, 1-methyl-1-(2-(1-methyl-1H-imidazo[1,2-b]pyrazole-7-carbonyl)-2-azaspiro[3.3]heptan-6-yl)-3-(4-(trifluoromethyl)pyridin-2-yl)urea]
Ki (DDR2): 5 to 25 nM | Ki (DDR1): < 5 nM

CN(C(=O)Nc1cncc(C(F)(F)F)c1)C1CC2(C1)CN(C(=O)c1ncnc3ccsc13)C2 [Example 130, 1-methyl-1-(2-(thieno[3,2-d]pyrimidine-4-carbonyl)-2-azaspiro[3.3]heptan-6-yl)-3-(5-(trifluoromethyl)pyridin-3-yl)urea]
Ki (DDR2): 5 to 25 nM | Ki (DDR1): < 5 nM

CC(C)(C)c1cc(NC(=O)NC2CC3(C2)CN(C(=O)c2cnn4ccsc24)C3)no1 [Example 20, 1-(5-(tert-butyl)isoxazol-3-yl)-3-(2-(pyrazolo[5,1-b]thiazole-7-carbonyl)-2-azaspiro[3.3]heptan-6-yl)urea]
Ki (DDR2): 5 to 25 nM | Ki (DDR1): < 5 nM

O=C(Nc1cc(C(F)(F)F)cnn1)NC1CC2(C1)CN(c1cnc3[nH]ncc3c1)C2 [Example 306, 1-(2-(1H-pyrazolo[3,4-b]pyridin-5-yl)-2-azaspiro[3.3]heptan-6-yl)-3-(5-(trifluoromethyl)pyridazin-3-yl)urea]
Ki (DDR2): 5 to 25 nM | Ki (DDR1): < 5 nM

O=C(Nc1cncc(C(F)(F)F)c1)NC1CC2(C1)CN(C(=O)c1ccnc3ccsc13)C2 [Example 49, 1-(2-(thieno[3,2-b]pyridine-7-carbonyl)-2-azaspiro[3.3]heptan-6-yl)-3-(5-(trifluoromethyl)pyridin-3-yl)urea]
Ki (DDR2): < 5 nM | Ki (DDR1): < 5 nM
